SMILES strings stand for the structures. The source made the active and inactive calls.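 The calls were made as follows: active = signal falls with dose and the fitted half-maximal concentration is at or below twice the top valid tested dose; inconclusive = flat curve with 30 to 70% inhibition, or poor fit; inactive = wrong direction, flat within 30%, or potency beyond limit.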

In the first assay the target is Golgi-associated PDZ and coiled-coil motif-containing protein (Homo sapiens) (UniProt Q9HD26). As to the kind of experiment: CAL PDZ domain peptide-binding inhibitors, dose response, biochemical, fluorescence polarization, untagged CAL PDZ, cherry-pick (AID 602267). The note with it: purified CAL PDZ, TMR-peptide fluorescence polarization, 1 h.
As for `CCNc1ccc2noc3c2c1C(=O)c1ccccc1-3`, the AC50 is 4.74 µM.

The assay is the same for the next values; noted with them: purified CAL PDZ, TMR-peptide fluorescence polarization, 1 h; at 16 µM (top of the series).
Regarding `CC1CCN(c2nc3c(c(=O)n(C)c(=O)n3C)n2CCSc2nc3ccccc3s2)CC1`, the “activity change, negative = inhibition” value was “inactive”. For the compound `Oc1ccccc1N=Cc1c(O)ccc2oc3c(c12)CCCC3`, the “activity change, negative = inhibition” value was “inactive”. With `c1ccc(C2Nc3ccccc3Oc3ccccc32)cc1` (stereo not given), the “activity change, negative = inhibition” value was “inactive”. As for `C=CCOc1c(Cl)cc(CNn2cn[nH]c2=S)cc1OC`, the “activity change, negative = inhibition” value was “inactive”.

The assay is the same for the next values; noted with them: purified CAL PDZ, TMR-peptide fluorescence polarization, 1 h; at 50 µM (top of the series).
As to `COC(=O)c1cccc([N+](=O)[O-])c1CS(=O)(=O)c1ccc(C)cc1`, the “activity change, negative = inhibition” value is “inactive”. Turning to `O=C(CN(Cc1ccccc1)S(=O)(=O)c1ccc(F)cc1)NCCC1=CCCCC1`, the “activity change, negative = inhibition” value was “inactive”. Take `CCCc1cc2c(cc1NC(=O)c1ccco1)OCO2`: the “activity change, negative = inhibition” value was “inactive”.

For the compound `OC(c1ccccc1)(c1ccccc1)c1nccc2ccccc12`, the “activity change, negative = inhibition” value was “inactive”. The same measure, in the same setting: the result for `COc1ccc(N2CCN(C3CCCN(Cc4ccc(F)cc4)C3)CC2)cc1` (stereo not given) reads “inactive”.

Regarding `CC(=Nc1ccccc1O)c1sc2ccccc2c1O`, the “activity change, negative = inhibition” value was “inactive”. Regarding `O=C(NCC1CCCO1)c1cn(-c2ccccc2)nc1-c1ccc(F)cc1` (stereo not given), the “activity change, negative = inhibition” value was “inactive”. Turning to `CC1=C(C#N)C(=O)NC(=O)/C1=C\c1ccc(-c2cc(C)c(C)cc2[N+](=O)[O-])o1`, the “activity change, negative = inhibition” value was “inactive”.

On to `COCCCNC(=O)c1cc(S(=O)(=O)N2CCOCC2)ccc1SCc1cccc(OC)c1OC`, for which the “activity change, negative = inhibition” value was “inactive”. For `c1cc(-c2nnc(-c3ccncc3)o2)ccn1`, the “activity change, negative = inhibition” value is “inactive”. Consider `CSc1ccccc1NC(=O)C1CC(c2c(F)cccc2Cl)=NO1` (stereo not given), for which the “activity change, negative = inhibition” value is “inactive”. As to `Cc1cc(C)c2nc(-c3ccncc3)cc(C(=O)N3CCN(Cc4ccccc4Cl)CC3)c2c1`, the “activity change, negative = inhibition” value was “inactive”. In the case of `O=C(c1ccccc1)C(CCc1ccccn1)CCc1ccccn1`, the “activity change, negative = inhibition” value is “inactive”.

For `CCN(CC)CCC(=O)N1c2ccccc2CCc2ccc(NC(=O)OC(C)C)cc21`, the “activity change, negative = inhibition” value is “inactive”.

Turning to `CCC(=O)Nc1ccc(S(=O)(=O)NCc2ccco2)cc1`, the “activity change, negative = inhibition” value was “inactive”.

With `Cc1c(C)c2cc3c4c(oc3c(C)c2oc1=O)CCCC4`, the “activity change, negative = inhibition” value was “inactive”. As to `Oc1ccc(C=Nc2cccc3ccccc23)c(O)c1`, the “activity change, negative = inhibition” value was “inactive”.

Regarding `Cc1cccc(C(=O)Nc2ccc(C(=O)/C=C/c3ccncc3)cc2)c1`, the “activity change, negative = inhibition” value is “inactive”.

Take `Cc1sc(NC(=O)c2ccco2)c(C(Nc2ccccn2)c2ccccc2)c1C` (stereo not given): the “activity change, negative = inhibition” value is “inactive”. As for `CC1CCCCC1NCC(=O)NCc1ccc(F)cc1` (stereo not given), the “activity change, negative = inhibition” value was “inactive”. In the case of `Cc1ccc(Cl)c2c(N=Nc3ccccc3)c(O)[nH]c12`, the “activity change, negative = inhibition” value is “inactive”. For `CCOC(=O)C1(CCOc2ccccc2)CCN(CC(O)CO)CC1` (stereo not given), the “activity change, negative = inhibition” value was “inactive”. As to `CS(=O)(=O)N(CC(=O)N1CCOCC1)c1cccc(F)c1`, the “activity change, negative = inhibition” value is “inactive”. Turning to `COc1cccc(CN2CCN(C3CSCCSC3)CC2CCO)c1` (stereo not given), the “activity change, negative = inhibition” value was “inactive”. For the compound `CSc1ccc(CNCCCSc2ncccn2)cc1`, the “activity change, negative = inhibition” value was “inactive”. As for `O=C(NCc1cccnc1)/C(=C/c1ccc(-c2cccc(C(F)(F)F)c2)o1)NC(=O)c1ccccc1`, the “activity change, negative = inhibition” value is “inactive”. Turning to `Cc1ccc(-c2nnn(CC(=O)N(CCN3CCOCC3)C(C(=O)NC(C)(C)C)c3ccc(C)o3)n2)cc1` (stereo not given), the “activity change, negative = inhibition” value is “inactive”. `O=[N+]([O-])c1ccccc1S(=O)(=O)NC1CCCCCCC1`: the “activity change, negative = inhibition” value was “inactive”. Consider `CC1(C2CC2)NC(=O)N(CC(=O)NCC(=O)Nc2ccc(F)c(F)c2F)C1=O` (stereo not given), for which the “activity change, negative = inhibition” value is “inactive”. For `O=C(NC(=S)NCCCN1CCOCC1)c1ccc(Br)cc1`, the “activity change, negative = inhibition” value is “inactive”.

Regarding `COc1ccc(/C=N/NC(=O)c2cccc(C(F)(F)F)c2)cc1`, the “activity change, negative = inhibition” value was “inactive”. As for `CCN(CC(=O)Nc1cc(Cl)cc(Cl)c1)CC(=O)NC1CCS(=O)(=O)C1` (stereo not given), the “activity change, negative = inhibition” value is “inactive”. Consider `O=C1CN(C(=O)CC2C(=O)NCCN2Cc2ccccc2C(F)(F)F)CCN1` (stereo not given), for which the “activity change, negative = inhibition” value was “inactive”.

On to `CCCOc1ccc(CC(=O)N/N=C\c2ccc(F)cc2)cc1`, for which the “activity change, negative = inhibition” value is “inactive”. Still for that read-out and setting: the result for `CC1CCN(CCCNC(=O)c2ccc3c(=O)n(Cc4ccc(Cl)cc4)c(=S)[nH]c3c2)CC1` reads “inactive”; that for `O=C1c2ccccc2C(=O)N1CSc1nnnn1-c1ccccc1`, “inactive”; that for `Cc1c(Cl)c(C(F)(F)F)nn1CC(=O)NCc1ccco1`, “inactive”.

In the case of `Cc1cc(C)c(S(=O)(=O)NCc2ccc3c(c2)OCO3)c(C)c1`, the “activity change, negative = inhibition” value was “inactive”. Still for that read-out and setting: then `CCOc1c(Cl)cc(CNc2nnnn2C)cc1OC`, with “inactive”. Regarding `COc1ccc(Cl)cc1C(=O)Nc1ccc2c(c1)OCCO2`, the “activity change, negative = inhibition” value is “inactive”. In the case of `COc1ccc(S(=O)(=O)N2CC(=O)Nc3ccccc32)cc1F`, the “activity change, negative = inhibition” value was “inactive”.

Consider `CS(=O)(=O)N1CCN(C(=O)c2ccc3c(c2)OCCO3)CC1`, for which the “activity change, negative = inhibition” value was “inactive”.

For the compound `CCCCOc1ccc(C(=O)N2CCNC(=O)C2CC(=O)OC(C)C)cc1` (stereo not given), the “activity change, negative = inhibition” value is “inactive”. With `O=C(NNC(=S)NC(=O)c1ccc(Br)cc1)c1ccc([N+](=O)[O-])cc1`, the “activity change, negative = inhibition” value was “inactive”. `CCOc1ccccc1CN1CCC(n2nccc2NC(=O)C2CCCC2)CC1`: the “activity change, negative = inhibition” value is “inactive”. On to `COCC(=O)NNC(=O)c1ccc(OC)cc1`, for which the “activity change, negative = inhibition” value is “inactive”.

As for `O=C(CN1CC[n+]2c(-c3cccs3)csc21)c1ccc(-c2ccccc2)cc1`, the “activity change, negative = inhibition” value is “inactive”.

For the compound `N#C/C(=C\c1c[nH]c2ccccc12)C(=O)NC1CC1`, the “activity change, negative = inhibition” value was “inactive”.

For the compound `O=C(CCc1nc(-c2ccc(Cl)cc2)no1)NC1CCCCC1`, the “activity change, negative = inhibition” value is “inactive”. On the same count and under the same terms, the result for `c1ccc2[nH]c(CCNC3CCCCC3)nc2c1` reads “inactive”; that for `COC(=O)c1ccccc1NC(=O)n1cc(C)cn1`, “inactive”; that for `NS(=O)(=O)c1ccc(N2N=C(c3ccccc3)CC2c2ccccc2)cc1` (stereo not given), “inactive”. For the compound `CC(C)CN1CCN(Cc2cccc3c2OCO3)CC1CCO` (stereo not given), the “activity change, negative = inhibition” value is “inactive”.

For the compound `COc1ccc(C2/C(=C(/O)c3ccc(C)cc3)C(=O)C(=O)N2C)c(OC)c1` (stereo not given), the “activity change, negative = inhibition” value is “inactive”.

Regarding `CC1=NN(C(N)=S)C(=O)C1N=Nc1ccc(Cl)cc1` (stereo not given), the “activity change, negative = inhibition” value is “inactive”. On to `Cc1c(Cl)c(C(=O)N2CCCC2)nn1C`, for which the “activity change, negative = inhibition” value was “inactive”.

`CC(O)CNCCCOc1cccc(Oc2ccccc2)c1` (stereo not given): the “activity change, negative = inhibition” value is “inactive”. On to `Nc1nc2ccccc2cc1S(=O)(=O)c1ccccc1`, for which the “activity change, negative = inhibition” value was “inactive”. On the same count and under the same terms, then `CCN(CC)CCn1c(SCC(=O)NCc2ccccc2)nc2c(sc3ccccc32)c1=O`, with “inactive”; and `Cc1ccc(C(=O)Nc2ccccc2)cc1S(=O)(=O)N1CCN(C)CC1`, with “inactive”. As to `S=C(NCCc1ccccc1)N1CCn2cccc2C1c1cccnc1` (stereo not given), the “activity change, negative = inhibition” value was “inactive”. In the case of `CCOc1ccc(NC(=O)c2nsc(Cl)c2Cl)cc1`, the “activity change, negative = inhibition” value is “inactive”.

In the case of `CCNC(=S)N(CCN(CC)CC)Cc1cc2cc3c(cc2[nH]c1=O)OCCO3`, the “activity change, negative = inhibition” value was “inactive”. Still for that read-out and setting: the result for `Cc1cc(C)nc(/N=C(\N)N2CCc3ccccc32)n1` reads “inactive”; that for `O=C(COC(=O)c1cccc(O)c1)NC(=O)Cc1ccccc1`, “inactive”; that for `CCOC(=O)c1ccc(NC(=S)N2CCCC(C(=O)N3CCCC3)C2)cc1` (stereo not given), “inactive”. In the case of `O=C(NNC(=O)c1ccc(Cl)c(Cl)c1)c1cccnc1`, the “activity change, negative = inhibition” value is “inactive”. Regarding `O=C(N/N=C/c1ccc(OCc2ccccc2)cc1)c1ccc(O)cc1`, the “activity change, negative = inhibition” value was “inactive”.

For `Cc1cc(C(=O)CN2CCCC2)c(C)n1-c1ccc(Cl)cc1`, the “activity change, negative = inhibition” value is “inactive”. As for `CC1CCCN(C(=O)Cc2cccc3ccccc23)C1` (stereo not given), the “activity change, negative = inhibition” value was “inactive”. On the same count and under the same terms, the result for `Cc1ccc(/C=N/NC(=O)NN(C)c2ncc(C(F)(F)F)cc2Cl)cc1` reads “inactive”. Same read-out and setting: then `COc1ccc2ccccc2c1CN(C)Cc1ccccc1`, with “inactive”; and `COc1ccc(OC)c(NC(=O)CS(=O)(=O)Cc2ccccc2)c1`, with “inactive”.

In the case of `CO[C@H]1O[C@H](C)[C@@H](O)C[C@H]1NC(=O)OCc1ccccc1`, the “activity change, negative = inhibition” value is “inactive”. With `CC1=C(C#N)C(Nc2ccc(Cl)cn2)(C(F)(F)F)C(=O)N1` (stereo not given), the “activity change, negative = inhibition” value is “inactive”. Take `CCn1ncc(Br)c1C(=O)Nc1cccc(F)c1`: the “activity change, negative = inhibition” value was “inactive”.

`COc1ccc(/C=C2\N=C(c3ccc(C)cc3)OC2=O)cc1`: the “activity change, negative = inhibition” value was “inactive”.

Turning to `COc1ccc(Nc2cccccc2=O)cc1`, the “activity change, negative = inhibition” value was “inactive”. Take `CN(C)c1ccc(C=c2c3ccccc3n3c2cc(-c2ccccc2)[n+]3C)cc1`: the “activity change, negative = inhibition” value is “inactive”.

For the compound `O=C(c1cc(Br)ccc1Cl)N1CCN(c2ccccn2)CC1`, the “activity change, negative = inhibition” value is “inactive”.

These data come from PubChem BioAssay AID602267 (Broad Institute, 2012).
